In patent US7141553B2, “A3AR agonists for the treatment of inflammatory arthritis” (Can-Fite Biopharma Ltd. Israel, priority 2002, dated 2006):

How the values were obtained:
[1] = Single dose study in healthy men, plasma pharmacokinetics; assay type: in vivo, human
Experimental: (§1) In the single dose study, 15 healthy men (3 groups of 5) received a single oral dose of IB-MECA (1, 5 or 10 mg) or placebo. In each group, 1 subject received placebo. In the repeated dose study, 28 healthy men (4 groups of 7) received repeated oral doses of IB-MECA (2, 3, 4 or 5 mg) or placebo every 12 h for 7 days. In each group, 2 subjects received placebo.
(§2) In the single dose study, a solution with IB-MECA powder in 30% Cremophor RH40 (BASF) was used. In the repeated dose study, an aqueous 0.5% methylcellulose suspension (Methocel A4M Premium, The Dow Chemical Company) was used. In both studies, the study medication was taken orally as a drink, followed by 50 ml of tap water.
(§3) The following procedures were done: • Safety assesment: laboratory assessments (routine biochemistry and urinalysis), physical examination, 12-lead ECG, ambulatory ECG, pulmonary function testing (FEV1), vital signs (semi-recumbent in the single dose study; semi-recumbent and standing in the repeat dose study). Adverse events were recorded throughout both studies. • Determination of IB-MECA blood level: in the single dose study blood samples for assay of IB-MECA were taken immediately before and at 0.25, 0.5, 1, 2, 4, 8, 12, 24, and 48 h after dosing; in the repeat dose study—blood samples were taken immediately before and at 0.25, 0.5, 1, 2, 4, 8, and 12 h after dosing on Day 1, before dosing on Days 2–6, and before and at 0.25, 0.5, 1, 2, 4, 8, 12, and 24 h after dosing on Day 7.
(§4) Plasma samples were assayed for IB-MECA using LC/MS/MS. The lower limit of quantification (LLOQ) was 0.1 ng/mL. Intra-assay coefficients of variation (CV) were <5.0% and inter-assay CVs were <9.4%.
(§5) Maximum concentration (Cmax) and time to maximum concentration (tmax) were observed values. Other pharmacokinetic parameters (half-life, t^1/2; AUC; and clearance, CL/F) were calculated by non-compartmental methods using WinNonlin® software (version 3.0, Pharsight, Mountain View, Calif., US). Accumulation indices of Cmax and AUC were calculated as ratio of values at steady state (Day 7) to the values on Day 1.

healthy men [2] = experiment: Single dose study in healthy men, safety and tolerability; assay type: in vivo, human; settings: for maximal tolerated dose: once daily administration
Experimental: (§6) Two clinical studies were carried out: a single dose study and a repeat dose study. Both studies were parallel-group, double-blind, dose-rising, and placebo-controlled in design.
as §1
(§7) Healthy young men, aged 18–45 years.
as §2, §3
(§8) Data from all subjects who received IB-MECA were included in the analysis of safety and tolerability (adverse events and laboratory safety variables). Numerical data and parameters were summarised using means or medians, and other descriptive statistics, according to the type and distribution of the data.

healthy men [3] = experiment: Repeat dose study in healthy men, safety and tolerability; assay type: in vivo, human
Experimental: as §6, §1, §7, §2, §3, §8

[4] = Repeat dose study in healthy men, plasma pharmacokinetics; assay type: in vivo, human; settings: for Cmax: n=5
Experimental: as §1, §2, §3, §4, §5

[5] = system: collagen-induced arthritis; settings: 0.5 mg/kg a day; cited from earlier work
macrophages = settings: dose dependent; cited from earlier work
[6] = system: adjuvant induced arthritis; experiment: Adjuvant arthritis model in Lewis rats; assay type: in vivo, rat
[7] = single doses 1-10 mg, independent of dose
[8] = single oral dose 1 mg, mean (SD)
[9] = single oral dose 5 mg, mean (SD)
[10] = single oral dose 10 mg, mean (SD)
[11] = 2 mg every 12 h, Day 1, mean (SD)
[12] = 2 mg every 12 h, Day 7, mean (SD)
[13] = 3 mg every 12 h, Day 1, mean (SD)
[14] = 3 mg every 12 h, Day 7, mean (SD)
[15] = 4 mg every 12 h, Day 1, mean (SD)
[16] = 4 mg every 12 h, Day 7, mean (SD)
[17] = 5 mg every 12 h, Day 1, mean (SD)
[18] = 5 mg every 12 h, Day 7, mean (SD)
[19] = repeated doses, independent of dose

CNC(=O)[C@H]1O[C@@H](n2cnc3c(NCc4cccc(I)c4)ncnc32)[C@H](O)[C@@H]1O [IB-MECA, N6-(3-iodobenzyl)-adenosine-5′-N-methyl-uronamide]
plasma level (Cmax) ([1]; single daily dose of 5 mg and twice daily dose of 4 mg): < 80 ng/mL | Cmax ([1]; single daily dose of 5 mg and twice daily dose of 4 mg, read-out: plasma level (Cmax)): < 160 nM | tmax ([1]; single doses 1-10 mg): 1 to 2 h | apparent plasma clearance (CL/F) [1, 7]: 4 to 7 L/h | half-life [1, 7]: about 8.5 h | AUC(0–48) [1, 8]: 220.7 ng·h/mL | AUC(inf) [1, 8]: 225.2 (21.7) ng · h/mL | CL/F [1, 8]: 4.5 (0.4) L/h | t1/2 [1, 8]: 8.7 (0.7) h | Cmax ([1]; single oral dose 1 mg, mean (SD), n=4): 21.2 ng/mL | tmax ([1]; single oral dose 1 mg, median (range)): 1 (1–2) h | AUC(0–48) [1, 9]: 872.3 ng·h/mL | AUC(inf) [1, 9]: 904.0 (221.9) ng · h/mL | CL/F [1, 9]: 5.8 (1.4) L/h | t1/2 [1, 9]: 8.3 (0.2) h | Cmax ([1]; single oral dose 5 mg, mean (SD), n=4): 81.6 ng/mL | tmax ([1]; single oral dose 5 mg, median (range)): 1 (1–2) h | AUC(0–48) [1, 10]: 1780.0 ng·h/mL | AUC(inf) [1, 10]: 1813.0 (226.5) ng · h/mL | CL/F [1, 10]: 5.6 (0.7) L/h | t1/2 [1, 10]: 8.6 (0.4) h | Cmax ([1]; single oral dose 10 mg, mean (SD), n=4): 178.0 ng/mL | tmax ([1]; single oral dose 10 mg, median (range)): 1 (1–2) h | change in resting heart rate (healthy men [2]; after single 5 mg dose, four subjects): small increase in resting heart rate | resting heart rate (healthy men [2]; after single 10 mg dose, 2 subjects, considered drug-related): up to 115 beats/min | maximal tolerated dose (healthy men [2]): about 5 mg | maximal tolerated dose (healthy men [2]; calculated on average human weight of 70 Kg): about 70 micro ram/Kg | adverse events within 12 h of dosing (healthy men [2]; single dose of 10 mg): 8 | adverse events within 12 h of dosing (healthy men [2]; single doses of up to 5 mg): no adverse events | tolerability (healthy men [2]; single oral doses of up to 5 mg): safe and well tolerated | safety profile (healthy men [3]; 2-5 mg every 12 h for 7 days, vital signs, physical examination, FEV1, ECG): acceptable safety profile | heart rate (healthy men [3]; Day 1 of repeated dosing, effect smaller on Day 7): dose-related increase in heart rate | tolerability (healthy men [3]; repeat doses of up to 4 mg 12-hourly): safe and well tolerated | adverse events within 12 h of dosing (healthy men [3]; repeated doses of 5 mg 12-hourly): 13 | adverse events within 12 h of dosing (healthy men [3]; repeated doses of up to 4 mg 12-hourly): 2 | maximal tolerated dose (healthy men [3]; twice daily administration): 4 mg | AUC (AUC(inf) on Day 1) [4, 11]: 207.4 (52.0) ng · h/mL | AUC(0–12) [4, 11]: 155.2 (39.1) ng · h/mL | CL/F [4, 11]: 10.1 (2.3) L/h | t1/2 [4, 11]: 5.52 (0.2) h | Cmax [4, 11]: 22.0 (3.3) ng/mL | tmax ([4]; 2 mg every 12 h, Day 1, median (range)): 2 (1–4) h | AUC (AUC(0–24) on Day 7) [4, 12]: 346.3 (64.0) ng · h/mL | AUC(0–12) [4, 12]: 242.4 (41.4) ng · h/mL | CL/F [4, 12]: 4.9 (0.7) L/h | t1/2 [4, 12]: 9.83 (1.2) h | Cmax [4, 12]: 30.9 (3.1) ng/mL | tmax ([4]; 2 mg every 12 h, Day 7, median (range)): 2 (1–2) h | AUC (AUC(inf) on Day 1) [4, 13]: 423.5 (27.5) ng · h/mL | AUC(0–12) [4, 13]: 304.5 (19.5) ng · h/mL | CL/F [4, 13]: 7.1 (0.5) L/h | t1/2 [4, 13]: 6.29 (1.0) h | Cmax [4, 13]: 49.3 (9.7) ng/mL | tmax ([4]; 3 mg every 12 h, Day 1, median (range)): 2 (1–2) h | AUC (AUC(0–24) on Day 7) [4, 14]: 512.1 (74.1) ng · h/mL | AUC(0–12) [4, 14]: 341.6 (38.1) ng · h/mL | CL/F [4, 14]: 5.0 (0.6) L/h | t1/2 [4, 14]: 9.25 (0.8) h | Cmax [4, 14]: 49.0 (7.9) ng/mL | tmax ([4]; 3 mg every 12 h, Day 7, median (range)): 1 (1–2) h | AUC (AUC(inf) on Day 1) [4, 15]: 400.2 (85.7) ng · h/mL | AUC(0–12) [4, 15]: 297.0 (57.2) ng · h/mL | CL/F [4, 15]: 10.4 (2.1) L/h | t1/2 [4, 15]: 5.77 (0.6) h | Cmax [4, 15]: 46.2 (11.4) ng/mL | tmax ([4]; 4 mg every 12 h, Day 1, median (range)): 2 (1–2) h | AUC (AUC(0–24) on Day 7) [4, 16]: 640.3 (73.7) ng · h/mL | AUC(0–12) [4, 16]: 458.3 (54.8) ng · h/mL | CL/F [4, 16]: 5.4 (0.7) L/h | t1/2 [4, 16]: 8.93 (0.8) h | Cmax [4, 16]: 58.1 (10.4) ng/mL | tmax ([4]; 4 mg every 12 h, Day 7, median (range)): 1 (1–2) h | AUC (AUC(inf) on Day 1) [4, 17]: 596.1 (196.6) ng · h/mL | AUC(0–12) [4, 17]: 461.6 (157.4) ng · h/mL | CL/F [4, 17]: 9.3 (3.5) L/h | t1/2 [4, 17]: 4.96 (0.3) h | Cmax [4, 17]: 63.6 (22.0) ng/mL | tmax ([4]; 5 mg every 12 h, Day 1, median (range)): 2 (1–2) h | AUC (AUC(0–24) on Day 7) [4, 18]: 818.4 (214.0) ng · h/mL | AUC(0–12) [4, 18]: 601.0 (163.6) ng · h/mL | CL/F [4, 18]: 5.4 (1.5) L/h | t1/2 [4, 18]: 9.39 (0.6) h | Cmax [4, 18]: 79.5 (24.1) ng/mL | tmax ([4]; 5 mg every 12 h, Day 7, median (range)): 2 (2–2) h | accumulation index for AUC ([4]; ratio Day 7 to Day 1): 1.1–1.6 | accumulation index for Cmax ([4]; ratio Day 7 to Day 1): 1–1.4 | tmax ([4]; repeated doses 2-5 mg every 12 h): 1 to 2 h | steady state reached by ([4]; repeated doses every 12 h): ≤ 3 days | apparent plasma clearance (CL/F) [4, 19]: 5 to 10 L/h | half-life at steady state [4, 19]: 9 to 10 h | severity of joint inflammation [5]: reduced the severity of joint inflammation | production of MIP-1α in macrophages (macrophages): suppresses the production of MIP-1α | production of the cytokines IL-1, IL-2, IL-6 as well as NO (macrophages): inhibit, also in a dose dependent manner | inflammation as assessed by the inflammation intensity score ([6]; 1 μg/day PO, FIG. 1B): significant reduction | histological picture of the joint ([6]; 10 μg a day, FIG. 3B, untreated shows destruction of synovial tissue and bone): appeared completely normal | inflammation as assessed by the inflammation intensity score ([6]; 10 μg/kg PO a day, treatment from day 7 after disease induction, FIG. 1A): effective in abolishing almost completely the inflammation | appearance of paws ([6]; 10 μg/kg a day PO, untreated rat paws extremely swollen and red): normal appearing paws | inflammation as assessed by the inflammation intensity score ([6]; 100 μg/kg PO a day, treatment from day 7 after disease induction, FIG. 1A): effective in abolishing almost completely the inflammation
